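Each compound was tested at five concentrations against cells in 96-well plates for 48 hours. The concentration for full growth arrest is given as TGI.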
Key:
Experiment in all cases: DTP human tumour cell line panel, 48 h
786-0 renal = system: 786-0 renal
A498 renal = system: A498 renal
A549 NSCLC = system: A549 NSCLC
ACHN renal = system: ACHN renal
BT-549 breast = system: BT-549 breast
CAKI-1 renal = system: CAKI-1 renal
CCRF-CEM leukemia = system: CCRF-CEM leukemia
COLO 205 colon = system: COLO 205 colon
DU-145 prostate = system: DU-145 prostate
EKVX NSCLC = system: EKVX NSCLC
HCC-2998 colon = system: HCC-2998 colon
HCT-116 colon = system: HCT-116 colon
HCT-15 colon = system: HCT-15 colon
HOP-62 NSCLC = system: HOP-62 NSCLC
HOP-92 NSCLC = system: HOP-92 NSCLC
HS 578T breast = system: HS 578T breast
HT29 colon = system: HT29 colon
IGROV1 ovarian = system: IGROV1 ovarian
K-562 leukemia = system: K-562 leukemia
KM12 colon = system: KM12 colon
M14 melanoma = system: M14 melanoma
MALME-3M melanoma = system: MALME-3M melanoma
MCF7 breast = system: MCF7 breast
MDA-MB-231 breast = system: MDA-MB-231 breast
MDA-MB-435 = system: MDA-MB-435
MDA-N = system: MDA-N
MOLT-4 leukemia = system: MOLT-4 leukemia
NCI-H226 lung = system: NCI-H226 lung
NCI-H23 lung = system: NCI-H23 lung
NCI-H460 lung = system: NCI-H460 lung
NCI-H522 lung = system: NCI-H522 lung
NCI/ADR-RES ovarian = system: NCI/ADR-RES ovarian
OVCAR-3 ovarian = system: OVCAR-3 ovarian
OVCAR-4 ovarian = system: OVCAR-4 ovarian
OVCAR-5 ovarian = system: OVCAR-5 ovarian
OVCAR-8 ovarian = system: OVCAR-8 ovarian
PC-3 prostate = system: PC-3 prostate
RPMI-8226 leukemia = system: RPMI-8226 leukemia
RXF 393 renal = system: RXF 393 renal
SF-268 CNS = system: SF-268 CNS
SF-295 CNS = system: SF-295 CNS
SF-539 CNS = system: SF-539 CNS
SK-MEL-2 melanoma = system: SK-MEL-2 melanoma
SK-MEL-28 melanoma = system: SK-MEL-28 melanoma
SK-MEL-5 melanoma = system: SK-MEL-5 melanoma
SK-OV-3 ovarian = system: SK-OV-3 ovarian
SN12C renal = system: SN12C renal
SNB-19 CNS = system: SNB-19 CNS
SNB-75 CNS = system: SNB-75 CNS
SW-620 colon = system: SW-620 colon
T-47D breast = system: T-47D breast
TK-10 renal = system: TK-10 renal
U251 CNS = system: U251 CNS
UACC-257 melanoma = system: UACC-257 melanoma
UO-31 renal = system: UO-31 renal

Measured: TGI

C=CC(O)(CBr)CCC(Br)C(C)(C)Cl (stereo not given)
> 10 µM: all assays above

— PubChem BioAssay (NCI)
